Laboratory results taken from ChEMBL document CHEMBL4256947, “Treatment of pancreatic and related cancers with 5-acyl-6,7-dihydrothieno[3,2-c]pyridines” (2016).

Target: Protein-cysteine N-palmitoyltransferase HHAT (Homo sapiens) (UniProt Q5VTY9)
Assay: Inhibition of HA/FLAG/His-tagged Hhat (unknown origin) expressed in human 293T cells at 25 uM using biotinylated Shh peptide as substrate pretreated for 20 mins followed by [125I]-iodo-palitoylCoA/substrate addition measured after 1 hr by gamma counting method relative to control

Sequence of Protein-cysteine N-palmitoyltransferase HHAT (Homo sapiens) (Q5VTY9 whole entry): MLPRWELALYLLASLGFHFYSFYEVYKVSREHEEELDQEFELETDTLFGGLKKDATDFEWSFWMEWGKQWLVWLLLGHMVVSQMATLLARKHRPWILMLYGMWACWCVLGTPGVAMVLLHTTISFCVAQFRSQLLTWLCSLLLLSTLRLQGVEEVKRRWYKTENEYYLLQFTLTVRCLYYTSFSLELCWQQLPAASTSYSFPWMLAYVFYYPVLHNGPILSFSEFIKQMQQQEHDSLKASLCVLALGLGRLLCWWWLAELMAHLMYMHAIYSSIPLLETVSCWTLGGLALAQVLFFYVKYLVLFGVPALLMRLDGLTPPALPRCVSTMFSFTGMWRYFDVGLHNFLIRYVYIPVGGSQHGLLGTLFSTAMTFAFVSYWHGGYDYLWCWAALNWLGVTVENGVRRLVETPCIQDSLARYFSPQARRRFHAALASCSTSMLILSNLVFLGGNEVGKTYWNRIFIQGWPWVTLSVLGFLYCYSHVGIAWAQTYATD

| SMILES | inhibition |
| --- | --- |
| CCC(C)CNCC(=O)N1CCc2sccc2C1c1cccc(C)c1 (configuration not stated) | > 75% |
| CCC(C)CNCC(=O)N1CCc2sccc2C1c1cccc(C)n1 (configuration not stated) | > 75% |
